Measurements reported in patent US7087375B1, “Method for determining the mechanism of HIV RT inhibitors” (priority 2000, dated 2006).
“And” between values parts separate entries of the source, which are not always exact repeats. Equal entries are not always repeated.

Key:
[1] = tested on: HXB2 site-directed mutant V75T; format: cell-based; details: virus V75T
[2] = tested on: HXB2 site-directed mutant Q151M; format: cell-based; details: virus Q151M
[3] = tested on: HXB2 site-directed mutant T69S-SS; format: cell-based; details: virus T69S-SS
[4] = tested on: HXB2 site-directed mutant D67N, K70R; format: cell-based; details: virus D67N
[5] = tested on: HXB2 site-directed mutant T69S-SG; format: cell-based; details: virus T69S-SG
[6] = tested on: wild type HXB2 virus; assay: HIV drug susceptibility assay (recombinant virus, MT-4 cells); details: for IC50: Human immunodeficiency virus 1, HXB2, MT4, read-out: mean IC50 for the wild type control virus; for Virus Assay fold resistance: wild type HXB2 virus (reference)
[7] = tested on: HXB2 site-directed mutant M41L, T69S-AG, T215Y; format: cell-based; details: virus M41L
[8] = tested on: HXB2 site-directed mutant T69S-AG; format: cell-based; details: virus T69S-AG
[9] = tested on: HXB2 site-directed mutant M41L, M184V, T215Y; format: cell-based; details: virus M41L
[10] = tested on: HXB2 site-directed mutant M41L, T215Y; format: cell-based; details: virus M41L
[11] = tested on: HXB2 site-directed mutant M41L, D67N, K70R, M184V, T215Y; format: cell-based; details: virus M41L
[12] = tested on: HXB2 site-directed mutant M41L, T69S-SS, T215Y; format: cell-based; details: virus M41L
[13] = tested on: HXB2 site-directed mutant M41L, T69S-SG, T215Y; format: cell-based; details: virus M41L

Structure (SMILES)	Fold resistance in IC50 relative to HXB2 [1]	Fold resistance in IC50 relative to HXB2 [2]	Fold resistance in IC50 relative to HXB2 [3]	Fold resistance in IC50 relative to HXB2 [4]	Fold resistance in IC50 relative to HXB2 [5]	IC50 [6]	Fold resistance in IC50 relative to HXB2 [7]	Fold resistance in IC50 relative to HXB2 [8]	Fold resistance in IC50 relative to HXB2 [9]	Fold resistance in IC50 relative to HXB2 [10]	Fold resistance in IC50 relative to HXB2 [11]	Fold resistance in IC50 relative to HXB2 [12]	Fold resistance in IC50 relative to HXB2 [13]	Virus Assay fold resistance [6]
Nc1nc(NC2CC2)c2ncn([C@H]3C=C[C@@H](CO)C3)c2n1 [Abacavir, abacavir]	1.8 fold	2.8 fold	3.0 fold	1.8 fold	4.0 fold	2.1 µM	12.0 fold	7.0 fold	7.1 fold	4.4 fold	4.1 fold	4.6 fold	9.6 fold	
Cc1cn([C@H]2C=C[C@@H](CO)O2)c(=O)[nH]c1=O [d4T, stavudine]			4.4 fold	5.1 fold	4.4 fold and 4.4 +/− 1.1 fold	1.2 µM	3.1 fold	6.9 fold and 6.9 +/− 2.7 fold	2.2 fold	2.6 fold	3.7 fold and 3.7 +/− 1.0 fold	7.1 fold	4.0 fold	1.0 fold
Nc1ccn([C@H]2CC[C@@H](CO)O2)c(=O)n1 [ddC, zalcitabine]	3.0 fold	5.4 fold	3.2 fold	1.3 fold	1.7 fold	0.71 µM	2.5 fold	2.8 fold	5.0 fold	2.5 fold	5.1 fold	1.5 fold	2.8 fold	
Nc1ccn([C@@H]2CS[C@H](CO)O2)c(=O)n1 [3TC, lamivudine]	3.2 fold	2.0 fold	5.0 fold	1.2 fold	2.9 fold	0.6 µM	6.1 fold	4.2 fold	>62 fold	1.0 fold	>62 fold	4.3 fold	11.3 fold	
Cc1cn([C@H]2C[C@H](N=[N+]=[N-])[C@@H](CO)O2)c(=O)[nH]c1=O [AZT, zidovudine]	1.4 fold	2.1 fold		11 fold and 11.2 fold	8.1 fold and 8.1 (+/−4) fold	0.012 µM	>96 fold	7.0 fold and 7.0 (+/−4) fold	5.2 fold and 5.2 (+/−1.5) fold	26 fold and 26.2 fold and 26.2 (+/−10) fold	6.4 fold and 6.4 (+/−1.5) fold	12 fold and 12.0 fold and 12.0 (+/−2) fold	>96 fold	1.0 fold
O=c1[nH]cnc2c1ncn2[C@H]1CC[C@@H](CO)O1 [ddI, didanosine]	2.5 fold	3.5 fold	4.3 fold	0.3 fold	2.1 fold	1.6 µM	6.5 fold	3.8 fold	8.0 fold	0.9 fold	2.4 fold	2.5 fold	5.0 fold	
